This passage reports pKa results from the pKa sets of Baltruschat and Czodrowski (2020).

As for `CCc1ccccc1C(=O)O`, the pKa (acidic group) turned out to be 3.79.

Compound `COc1ccc(NC(=S)c2cccc(Br)c2)cc1` displayed a pKa (acidic group) of 11.

The compound `CCNc1nc(N)nc(N)n1` came in with a pKa (basic group) of 5.23.

Where the note is “basic group”, `CCN(CC)CC[NH+](CC)CC` showed a pKa of 6.18.

As to `CCCCOC(=O)c1ccc[n+](O)c1`, where the note is “acidic group”, the pKa stood at 0.03.

Compound `Oc1[nH]c2ccccc2[nH+]1` yielded a pKa (acidic group) of -1.7.

In the case of `CC(C)(C)S`, the pKa (acidic group) came out at 11.1.

Take `CC(C)C[C@H]([NH3+])C(=O)O`: the pKa (acidic group) turned out to be 2.54.

Where the note is “acidic group”, `N#Cc1ccc(C(=O)S)cc1` showed a pKa of 1.42.

The compound `O=C([O-])C[NH+](CCNS(=O)(=O)c1ccc(CCBr)cc1)CC(=O)[O-]` displayed a pKa (acidic group) of 7.75.

Consider `CCc1ccc(C(C)C)cc1O`, for which the pKa (acidic group) is 10.6.

The compound `CCOCCn1c(N2CCCN(CCCCn3cc(C(=O)[O-])cn3)CC2)nc2ccccc21` displayed a pKa (basic group) of 8.5.

Turning to `O[n+]1ccccc1`, the pKa (acidic group) amounted to 0.77.

Turning to `Cc1ccc2cccc(C)c2n1`, the pKa (basic group) came to 4.1.

Under “acidic group”, `CC1(C)CCC(=O)N1O` showed a pKa of 8.7.

Take `Nc1ccccn1`: where the note is “basic group”, the pKa came to 6.95.

The compound `Cc1ccc(/C=C/C(=O)O)cc1` yielded a pKa (acidic group) of 4.56.

Take `c1ccc(-c2nc3ncncc3[nH]2)cc1`: the pKa runs as follows: (acidic group) 8.09; (basic group) 2.68.

Compound `Cn1ccc(=O)cc1` showed a pKa (basic group) of 3.33.

With `CNC(C)=S`, for the setting “basic group”, the pKa is -1.9.

Regarding `CN(C)/C=N/c1ccc(O)cc1`, the pKa was 10.5 (acidic group) and 8.28 (basic group).

Where the note is “basic group”, `CN(C)c1cccc(Cl)c1` yielded a pKa of 3.83.

With `Nc1nccc(-c2csc(N)[nH+]2)n1`, where the note is “basic group”, the pKa was 2.6.

Take `CN(C)CCc1c[nH]c2ccc([O-])cc12`: under “basic group”, the pKa was determined as 11.2.

As to `CC1CC[C@H](O)[C@@H](N)C1` (some centres not stated), the pKa (basic group) was determined as 9.5.

As to `N#CC(C#N)=NNc1c(Cl)cccc1Cl`, the pKa (acidic group) was determined as 4.7 and the pKa (basic group) is -0.67.

Take `CCc1nc(C)c[nH]1`: the pKa (basic group) was found to be 8.5.

With `Nc1ccncc1`, the pKa (basic group) worked out at 9.16.

For the setting “acidic group”, `O=C(O)C(c1ccc(-c2ccccc2)cc1)C(O)C1CCCCC1` (configuration not stated) displayed a pKa of 4.19.

Regarding `Cc1ccccc1/C(=N/CCC[NH+](C)C)c1ccc2ccccc2c1`, for the setting “basic group”, the pKa was found to be 4.54.

`Cc1ccnnc1C` registered a pKa (basic group) of 4.1.

In the case of `Cc1cc(O)ccc1C(C)C`, the pKa (acidic group) was determined as 10.3.

`CCCN(CC(C)O)CC(O)CC` (configuration not stated): the pKa (basic group) stood at 9.

Where the note is “acidic group”, `CC(C)C([NH3+])C(=O)O` (configuration not stated) returned a pKa of 2.41.

In turn, `C[C@@H]1[C@@H]2Cc3ccc(O)cc3[C@@]1(C)CCN2CCF` gave a pKa (basic group) of 8.35.

Take `Cc1nn(-c2ccccc2)c(O)c1Cc1ccccc1`: the pKa (acidic group) amounted to 11.8.

In the case of `c1ccc(-c2ccn[nH]2)nc1`, the pKa (basic group) is 4.46.

Consider `C[C@@H]1C[C@@H]([C@H](O)CC2CC(=O)NC(=O)C2)C(=O)[C@@H](C)C1`, for which, where the note is “acidic group”, the pKa was determined as 11.2.

As to `COc1ccc2c3c([nH]c2c1)C(C)NCC3` (configuration not stated), the pKa (acidic group) was 15.6.

For the setting “acidic group”, `O=C(O)CSCCc1ccccc1` gave a pKa of 3.8.

Compound `O=C(O)c1cccc(I)c1` came in with a pKa (acidic group) of 3.83.

Regarding `Oc1cc[nH+]cc1O`, the pKa (acidic group) is 3.6.

Under “acidic group”, `O=C1CC(=O)CS(=O)(=O)C1` displayed a pKa of 2.72.

Turning to `O=C(Cc1cccnc1)c1ccccc1`, the pKa was determined as 13.7 (acidic group) and 4.87 (basic group).

In turn, `CSc1cnc2ccccc2n1` gave a pKa (basic group) of 0.26.

As to `NC(=O)C(N)Cc1c[nH]cn1` (configuration not stated), the pKa (basic group) was determined as 7.64.

Under “basic group”, `COC(=O)C[C@@H]1[C@@H](C(=O)[O-])NC[C@H]1C(C)O` (some centres not stated) showed a pKa of 9.41.

`O=C([O-])CCC(=O)NOCc1ccccc1` registered a pKa (acidic group) of 10.2.

Compound `CCNc1nc(Cl)nc(NC(C)C)n1` showed a pKa (basic group) of 1.61.

Under “acidic group”, `CCC(CC)C(=O)O` gave a pKa of 4.73.

Compound `CCCCN(CCCC)c1ccc([N+](=O)[O-])cc1` came in with a pKa (basic group) of 1.08.

For `Cn1c(N)nc(=O)c2[nH]cnc21`, the pKa (basic group) was 4.61.

Compound `COCCN(CCOC)c1ccccc1` yielded a pKa (basic group) of 4.11.

In the case of `COc1ccccn1`, the pKa (basic group) was determined as 3.34.

For the compound `c1ccc(-c2nc3ccccc3s2)cc1`, the pKa (basic group) was determined as 0.7.

With `COc1cnc2ccccc2n1`, the pKa (basic group) was determined as 0.28.

Consider `c1[nH]c(Cc2c[nH]c(Cc3[nH]cc(Cc4c[nH]c[nH+]4)[nH+]3)n2)c[nH+]1`, for which, under “basic group”, the pKa was determined as 3.58.

In turn, `O/N=C/c1ccco1` displayed a pKa (acidic group) of 10.8.

As for `Cc1cc(-c2cc(C)n[nH]2)[nH]n1`, the pKa (basic group) is 2.8.

`CCOc1ccc2[nH]c(CC)nc2c1`: the pKa (basic group) was 6.27.

`N=C(Sc1ccccc1)c1ccccc1` showed a pKa (basic group) of 4.48.

Turning to `O=C(O)c1ccco1`, the pKa is 3.18 (acidic group) and -0.53 (basic group).

The compound `c1c[nH]c(P(c2ncc[nH]2)c2ncc[nH]2)n1` showed a pKa (basic group) of 7.44.

As to `Cc1ccccc1C(=NCCCCN(C)C)c1ccccc1C`, the pKa (basic group) was 8.8.

Under “acidic group”, `CN(C)Cc1cc(OCc2ccccc2)ccc1O` displayed a pKa of 11.5.

Turning to `Cc1cc(C(C)(C)C)c(O)c(C(C)(C)C)c1`, the pKa (acidic group) came out at 12.6.

Where the note is “basic group”, `N=C(Nc1ccccc1)Nc1ccccc1` returned a pKa of 9.94.

A word on the pKa: it is the negative logarithm of the acid dissociation constant. Read a high pKa as a weaker acid or stronger base.
